Reference: PubChem BioAssay (NCI)
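Briefly, cells in 96-well plates were exposed to five compound concentrations for 48 h, and endpoints were estimated by linear interpolation. TGI marks complete inhibition of growth.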

What was measured:
Experiment in all cases: inhibition of tumour cell growth, NCI panel, 48 h
A549 NSCLC = test system: A549 NSCLC
CCRF-CEM leukemia = test system: CCRF-CEM leukemia
COLO 205 colon = test system: COLO 205 colon
DMS 273 small cell lung = test system: DMS 273 small cell lung
HCC-2998 colon = test system: HCC-2998 colon
HCT-116 colon = test system: HCT-116 colon
HL-60(TB) leukemia = test system: HL-60(TB) leukemia
HOP-18 NSCLC = test system: HOP-18 NSCLC
HOP-92 NSCLC = test system: HOP-92 NSCLC
SF-295 CNS = test system: SF-295 CNS
SK-MEL-5 melanoma = test system: SK-MEL-5 melanoma
SK-OV-3 ovarian = test system: SK-OV-3 ovarian
SN12C renal = test system: SN12C renal
SR leukemia = test system: SR leukemia
SW-620 colon = test system: SW-620 colon
TK-10 renal = test system: TK-10 renal
UO-31 renal = test system: UO-31 renal
786-0 renal = test system: 786-0 renal
ACHN renal = test system: ACHN renal
CAKI-1 renal = test system: CAKI-1 renal
DLD-1 colon = test system: DLD-1 colon
HCT-15 colon = test system: HCT-15 colon
HOP-62 NSCLC = test system: HOP-62 NSCLC
HT29 colon = test system: HT29 colon
IGROV1 ovarian = test system: IGROV1 ovarian
K-562 leukemia = test system: K-562 leukemia
KM12 colon = test system: KM12 colon
KM20L2 colon = test system: KM20L2 colon
LOX IMVI melanoma = test system: LOX IMVI melanoma
LXFL 529 NSCLC = test system: LXFL 529 NSCLC
M14 melanoma = test system: M14 melanoma
MALME-3M melanoma = test system: MALME-3M melanoma
MOLT-4 leukemia = test system: MOLT-4 leukemia
NCI-H226 lung = test system: NCI-H226 lung
NCI-H23 lung = test system: NCI-H23 lung
NCI-H460 lung = test system: NCI-H460 lung
NCI-H522 lung = test system: NCI-H522 lung
OVCAR-3 ovarian = test system: OVCAR-3 ovarian
OVCAR-4 ovarian = test system: OVCAR-4 ovarian
OVCAR-5 ovarian = test system: OVCAR-5 ovarian
OVCAR-8 ovarian = test system: OVCAR-8 ovarian
RPMI-8226 leukemia = test system: RPMI-8226 leukemia
SF-268 CNS = test system: SF-268 CNS
SF-539 CNS = test system: SF-539 CNS
SK-MEL-2 melanoma = test system: SK-MEL-2 melanoma
SK-MEL-28 melanoma = test system: SK-MEL-28 melanoma
SNB-19 CNS = test system: SNB-19 CNS
SNB-75 CNS = test system: SNB-75 CNS
SNB-78 CNS = test system: SNB-78 CNS
U251 CNS = test system: U251 CNS
UACC-257 melanoma = test system: UACC-257 melanoma
UACC-62 melanoma = test system: UACC-62 melanoma
XF 498 CNS = test system: XF 498 CNS

CC(=O)Oc1cc(OC(C)=O)c2c(c1)OC(c1ccc(OC(C)=O)c(OC(C)=O)c1)CC2=O (configuration not stated)
TGI (A549 NSCLC): > 100 µM
TGI (CCRF-CEM leukemia): > 100 µM
TGI (COLO 205 colon): > 100 µM
TGI (DMS 273 small cell lung): > 100 µM
TGI (HCC-2998 colon): > 100 µM
TGI (HCT-116 colon): > 100 µM
TGI (HL-60(TB) leukemia): 29.7 µM
TGI (HOP-18 NSCLC): 95.8 µM
TGI (HOP-92 NSCLC): 69.4 µM
TGI (SF-295 CNS): > 100 µM
TGI (SK-MEL-5 melanoma): > 100 µM
TGI (SK-OV-3 ovarian): > 100 µM
TGI (SN12C renal): > 100 µM
TGI (SR leukemia): 49 µM
TGI (SW-620 colon): > 100 µM
TGI (TK-10 renal): > 100 µM
TGI (UO-31 renal): > 100 µM

O=C(O)CCCc1cc2c(s1)-c1cccc3cccc-2c13
TGI (786-0 renal): > 100 µM
TGI (A549 NSCLC): > 100 µM
TGI (ACHN renal): 76 µM
TGI (CAKI-1 renal): > 100 µM
TGI (COLO 205 colon): 42.3 µM
TGI (DLD-1 colon): > 100 µM
TGI (DMS 273 small cell lung): > 100 µM
TGI (HCC-2998 colon): 50.2 µM
TGI (HCT-116 colon): > 100 µM
TGI (HCT-15 colon): 51.8 µM
TGI (HL-60(TB) leukemia): 57.5 µM
TGI (HOP-62 NSCLC): > 100 µM
TGI (HOP-92 NSCLC): 39 µM
TGI (HT29 colon): > 100 µM
TGI (IGROV1 ovarian): > 100 µM
TGI (K-562 leukemia): > 100 µM
TGI (KM12 colon): 42.3 µM
TGI (KM20L2 colon): > 100 µM
TGI (LOX IMVI melanoma): 52 µM
TGI (LXFL 529 NSCLC): > 100 µM
TGI (M14 melanoma): > 100 µM
TGI (MALME-3M melanoma): > 100 µM
TGI (MOLT-4 leukemia): 60.8 µM
TGI (NCI-H226 lung): > 100 µM
TGI (NCI-H23 lung): 41.2 µM
TGI (NCI-H460 lung): > 100 µM
TGI (NCI-H522 lung): 51.1 µM
TGI (OVCAR-3 ovarian): 49.5 µM
TGI (OVCAR-4 ovarian): > 100 µM
TGI (OVCAR-5 ovarian): > 100 µM
TGI (OVCAR-8 ovarian): > 100 µM
TGI (RPMI-8226 leukemia): 72.5 µM
TGI (SF-268 CNS): > 100 µM
TGI (SF-295 CNS): > 100 µM
TGI (SF-539 CNS): > 100 µM
TGI (SK-MEL-2 melanoma): 46.3 µM
TGI (SK-MEL-28 melanoma): > 100 µM
TGI (SK-OV-3 ovarian): 75.4 µM
TGI (SN12C renal): 80.4 µM
TGI (SNB-19 CNS): > 100 µM
TGI (SNB-75 CNS): > 100 µM
TGI (SNB-78 CNS): 94.9 µM
TGI (SR leukemia): 56.9 µM
TGI (SW-620 colon): > 100 µM
TGI (TK-10 renal): > 100 µM
TGI (U251 CNS): 53.8 µM
TGI (UACC-257 melanoma): 53.9 µM
TGI (UACC-62 melanoma): 47.2 µM
TGI (UO-31 renal): 43.4 µM
TGI (XF 498 CNS): > 100 µM
